What all share (assay): Z'-LYTE kinase panel
Common to all, as to type: biochemical

Experiment [1] has as its target T1, NEK7 (Homo sapiens, UniProt Q8TDX7).
T1 construct: purchased ThermoFisher (SelectScreen, Z'-LYTE)
Put shortly:
(§1)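 Compounds were profiled across a 225-kinase standard panel. Each kinase was run in the standard Z′-LYTE assay and percentage inhibition was recorded at a compound concentration of 10 µM.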

Experiment [2] deals with T2, PRKG2 (PKG2) (Homo sapiens, UniProt Q13237).
T2 construct: purchased ThermoFisher (SelectScreen, Z'-LYTE)
T2 sequence (Q13237 1-762): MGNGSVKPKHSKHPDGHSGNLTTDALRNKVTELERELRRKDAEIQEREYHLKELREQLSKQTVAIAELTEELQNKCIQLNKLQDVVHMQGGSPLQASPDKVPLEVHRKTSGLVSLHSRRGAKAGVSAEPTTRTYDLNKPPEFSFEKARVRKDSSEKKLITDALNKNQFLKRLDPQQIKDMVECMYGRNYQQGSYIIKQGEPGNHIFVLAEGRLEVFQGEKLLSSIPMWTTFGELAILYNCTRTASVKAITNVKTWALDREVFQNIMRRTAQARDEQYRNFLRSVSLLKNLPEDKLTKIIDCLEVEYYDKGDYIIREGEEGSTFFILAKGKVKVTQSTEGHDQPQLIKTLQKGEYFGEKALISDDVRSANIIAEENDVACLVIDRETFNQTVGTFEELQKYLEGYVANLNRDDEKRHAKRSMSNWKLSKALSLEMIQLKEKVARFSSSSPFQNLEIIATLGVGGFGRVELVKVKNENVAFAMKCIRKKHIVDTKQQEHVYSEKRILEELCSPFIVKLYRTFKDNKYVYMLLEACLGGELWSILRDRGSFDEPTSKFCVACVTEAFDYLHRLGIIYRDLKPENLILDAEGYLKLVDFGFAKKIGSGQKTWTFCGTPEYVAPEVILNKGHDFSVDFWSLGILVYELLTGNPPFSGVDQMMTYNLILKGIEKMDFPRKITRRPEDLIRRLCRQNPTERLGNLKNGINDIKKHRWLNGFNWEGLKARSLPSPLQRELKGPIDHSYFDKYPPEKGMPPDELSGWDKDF
Put shortly: as §1

For experiment [3], the target named is T3, CSNK1G2 (CK1 gamma 2) (Homo sapiens, UniProt P78368).
T3 construct: purchased ThermoFisher (SelectScreen, Z'-LYTE)
T3 sequence (P78368 whole entry): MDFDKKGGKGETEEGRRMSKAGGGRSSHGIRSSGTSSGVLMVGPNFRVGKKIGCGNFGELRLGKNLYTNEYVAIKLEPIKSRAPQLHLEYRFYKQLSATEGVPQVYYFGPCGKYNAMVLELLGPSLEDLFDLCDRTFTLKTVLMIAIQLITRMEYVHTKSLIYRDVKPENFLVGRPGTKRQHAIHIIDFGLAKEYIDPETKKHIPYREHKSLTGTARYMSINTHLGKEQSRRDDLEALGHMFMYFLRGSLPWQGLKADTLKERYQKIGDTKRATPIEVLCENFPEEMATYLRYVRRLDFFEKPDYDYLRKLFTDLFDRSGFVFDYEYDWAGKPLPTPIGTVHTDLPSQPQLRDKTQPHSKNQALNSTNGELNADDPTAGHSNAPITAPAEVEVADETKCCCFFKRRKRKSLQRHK
In outline:
as §1

For experiment [4], the target named is T4, AURKA (Aurora A) (Homo sapiens, UniProt O14965).
T4 construct: purchased ThermoFisher (SelectScreen, Z'-LYTE)
T4 sequence (O14965 1-403): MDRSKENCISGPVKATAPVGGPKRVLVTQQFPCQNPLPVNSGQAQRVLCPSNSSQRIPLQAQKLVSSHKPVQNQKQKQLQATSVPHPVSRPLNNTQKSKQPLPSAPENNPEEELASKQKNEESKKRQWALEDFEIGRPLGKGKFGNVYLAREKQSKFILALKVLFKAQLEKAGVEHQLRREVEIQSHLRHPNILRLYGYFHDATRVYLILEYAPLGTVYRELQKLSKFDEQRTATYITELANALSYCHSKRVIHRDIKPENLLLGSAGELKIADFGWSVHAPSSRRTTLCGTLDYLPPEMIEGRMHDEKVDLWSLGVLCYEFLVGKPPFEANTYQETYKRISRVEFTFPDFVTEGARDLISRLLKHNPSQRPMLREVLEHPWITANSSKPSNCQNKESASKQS
In outline: as §1

In experiment [5] the target is T5, MYLK2 (skMLCK) (Homo sapiens, UniProt Q9H1R3).
T5 construct: purchased ThermoFisher (SelectScreen, Z'-LYTE)
In outline:
as §1

Experiment [6] addresses T6, EPHA5 (Homo sapiens, UniProt P54756).
T6 construct: purchased ThermoFisher (SelectScreen, Z'-LYTE)
Put shortly:
as §1

For experiment [7], the target named is T7, HIPK4 (Homo sapiens, UniProt Q8NE63).
T7 construct: purchased ThermoFisher (SelectScreen, Z'-LYTE)
T7 sequence (Q8NE63 1-616): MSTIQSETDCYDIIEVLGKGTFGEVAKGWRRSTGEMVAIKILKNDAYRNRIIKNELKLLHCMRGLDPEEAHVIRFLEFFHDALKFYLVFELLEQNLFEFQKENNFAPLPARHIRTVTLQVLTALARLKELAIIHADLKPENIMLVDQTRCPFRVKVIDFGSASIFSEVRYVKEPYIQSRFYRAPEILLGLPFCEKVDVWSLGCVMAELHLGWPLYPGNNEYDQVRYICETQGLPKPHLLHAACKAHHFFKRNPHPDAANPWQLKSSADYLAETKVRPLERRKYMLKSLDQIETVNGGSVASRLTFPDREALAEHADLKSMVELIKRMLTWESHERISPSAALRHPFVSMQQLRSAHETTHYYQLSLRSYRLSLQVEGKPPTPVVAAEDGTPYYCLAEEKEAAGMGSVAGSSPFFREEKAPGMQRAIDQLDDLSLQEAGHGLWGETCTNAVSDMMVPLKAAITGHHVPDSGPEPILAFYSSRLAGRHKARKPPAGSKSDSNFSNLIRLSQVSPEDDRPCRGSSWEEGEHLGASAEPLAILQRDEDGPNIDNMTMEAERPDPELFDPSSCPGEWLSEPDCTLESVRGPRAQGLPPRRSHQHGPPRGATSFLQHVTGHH
In outline:
as §1

The target of experiment [8] is T8, ACVR1B (ALK4) (Homo sapiens, UniProt P36896).
T8 construct: purchased ThermoFisher (SelectScreen, Z'-LYTE)
T8 sequence (P36896 24-505): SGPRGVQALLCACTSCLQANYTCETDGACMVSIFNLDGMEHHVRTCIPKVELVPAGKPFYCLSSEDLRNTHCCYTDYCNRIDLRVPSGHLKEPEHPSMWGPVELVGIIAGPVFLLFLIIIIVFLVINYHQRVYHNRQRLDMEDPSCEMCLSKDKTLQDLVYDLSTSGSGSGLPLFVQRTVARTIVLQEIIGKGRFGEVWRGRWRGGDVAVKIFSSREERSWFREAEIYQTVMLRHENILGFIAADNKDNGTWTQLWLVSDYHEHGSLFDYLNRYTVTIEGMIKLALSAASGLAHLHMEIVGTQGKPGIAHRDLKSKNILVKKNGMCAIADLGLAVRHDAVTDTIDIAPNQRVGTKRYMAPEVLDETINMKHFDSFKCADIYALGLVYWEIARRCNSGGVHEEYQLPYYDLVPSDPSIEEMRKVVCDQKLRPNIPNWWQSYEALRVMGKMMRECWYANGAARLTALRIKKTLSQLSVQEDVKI
Put shortly: as §1

Three compounds from publication PMC4854315, “Discovery of a novel allosteric inhibitor-binding site in ERK5: comparison with the canonical kinase hinge ATP-binding site” (Acta Crystallographica. Section D, Structural Biology, 2016) can be followed below.

T6 sequence (P54756 25-1037): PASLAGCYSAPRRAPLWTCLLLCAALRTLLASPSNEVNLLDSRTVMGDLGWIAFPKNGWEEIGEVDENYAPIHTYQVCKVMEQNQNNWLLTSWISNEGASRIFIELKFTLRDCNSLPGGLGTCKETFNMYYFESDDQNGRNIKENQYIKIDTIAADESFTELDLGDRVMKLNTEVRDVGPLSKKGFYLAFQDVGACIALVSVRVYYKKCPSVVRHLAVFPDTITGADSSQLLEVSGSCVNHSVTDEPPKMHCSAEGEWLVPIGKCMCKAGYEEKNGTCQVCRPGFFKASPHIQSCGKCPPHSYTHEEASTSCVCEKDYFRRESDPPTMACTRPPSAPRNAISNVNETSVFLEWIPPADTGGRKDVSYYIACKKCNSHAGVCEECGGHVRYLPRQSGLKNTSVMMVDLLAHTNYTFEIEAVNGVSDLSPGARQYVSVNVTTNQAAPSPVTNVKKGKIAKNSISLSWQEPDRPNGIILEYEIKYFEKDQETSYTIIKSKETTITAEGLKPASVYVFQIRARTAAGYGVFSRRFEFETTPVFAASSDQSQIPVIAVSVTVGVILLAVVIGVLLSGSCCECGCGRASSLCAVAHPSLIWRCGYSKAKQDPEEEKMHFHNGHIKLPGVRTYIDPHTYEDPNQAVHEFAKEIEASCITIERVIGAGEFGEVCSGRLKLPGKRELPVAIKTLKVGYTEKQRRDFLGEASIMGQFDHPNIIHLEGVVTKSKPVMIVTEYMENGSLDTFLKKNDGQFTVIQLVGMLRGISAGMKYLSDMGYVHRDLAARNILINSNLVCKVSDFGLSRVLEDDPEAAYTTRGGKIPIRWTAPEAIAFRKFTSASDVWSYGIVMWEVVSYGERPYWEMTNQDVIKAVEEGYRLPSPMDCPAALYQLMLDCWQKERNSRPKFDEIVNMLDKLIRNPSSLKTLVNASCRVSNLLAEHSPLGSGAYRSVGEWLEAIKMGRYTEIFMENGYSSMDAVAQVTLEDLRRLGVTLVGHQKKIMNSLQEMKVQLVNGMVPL
T1 sequence (Q8TDX7 whole entry): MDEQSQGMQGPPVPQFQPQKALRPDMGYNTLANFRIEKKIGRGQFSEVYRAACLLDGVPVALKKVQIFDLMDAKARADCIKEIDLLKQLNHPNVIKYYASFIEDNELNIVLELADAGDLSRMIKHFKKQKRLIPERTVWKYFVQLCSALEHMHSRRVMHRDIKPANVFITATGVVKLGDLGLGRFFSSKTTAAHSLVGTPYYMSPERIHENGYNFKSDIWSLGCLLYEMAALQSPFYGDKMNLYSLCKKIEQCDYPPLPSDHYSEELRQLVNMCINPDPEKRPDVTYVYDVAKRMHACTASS

What is called inhibition is the drop in the measured response relative to a control, in per cent. As for `Cc1ncc(-c2nc(Nc3ccc(C(=O)NCCN4CCCCC4)cc3)ncc2F)n1C(C)C` [Compound 3], the inhibition at 10 µM in experiment [1] came to 10%; in experiment [2], 95%; in experiment [3], 93%; in experiment [4] it was 82%; in experiment [5], 78%; in experiment [6], 71%. Also, the inhibition at 10 µM in experiment [7] amounted to 92%; in experiment [8], 52%.

With `Cc1cc(Nc2nc(N)nn2C(=O)NC(C)C)ccc1Cl` [Compound 5], the inhibition at 10 µM in experiment [1] is -0.441%; in experiment [2] it was -9%; in experiment [3], 10%; in experiment [4], 78%; in experiment [5], -0.775%; in experiment [6], 6.49%. In addition, the figures for the inhibition at 10 µM in experiment [7] and in experiment [8] were 19% and -8%, respectively.

On to “XMD8-92 [Compound 2, reference compound]”, for which the “NEK7 % Inhibition” value in experiment [1] (10 µM compound, ATP Km app) was 11%. Besides, the “PRKG2 (PKG2) % Inhibition” value in experiment [2] (10 µM compound, ATP Km app) is given as 43%. Besides, in experiment [3] (10 µM compound, ATP Km app), the “CSNK1G2 (CK1 gamma 2) % Inhibition” value was found to be 11%. In addition, the “AURKA (Aurora A) % Inhibition” value in experiment [4] (10 µM compound, ATP Km app) is 85%. Besides, the “MYLK2 (skMLCK) % Inhibition” value in experiment [5] (10 µM compound, ATP Km app) is on record as 42%. In addition, the “EPHA5 % Inhibition” value in experiment [6] (10 µM compound, ATP Km app) stood at 21%. For the same compound, the “HIPK4 % Inhibition” value in experiment [7] (10 µM compound, ATP Km app) is recorded as 10%. Besides, the “ACVR1B (ALK4) % Inhibition” value in experiment [8] (10 µM compound, ATP Km app) is reported as -2.75%.
